Assay results reported in paper PMC10486429, “Investigations Using Albumin Binders to Modify the Tissue Distribution Profile of Radiopharmaceuticals Exemplified with Folate Radioconjugates” (Cancers, 2023).

What was measured:
[1] = test system: KB tumor-bearing athymic nude mice; test: Biodistribution of 177Lu-RedFols in KB tumor-bearing mice; assay type: in vivo, mouse
Experimental: Athymic nude mice (Crl:CD1-Foxn^nu) were kept on a folate-deficient rodent diet (ssniff Spezialdiäten GmbH, Soest, Germany) for at least one week prior to inoculation with the tumor cells. Biodistribution studies were performed approx. two weeks after subcutaneous inoculation with KB tumor cells (5 × 10^6 in 100 μL PBS) (Supplementary Materials Section S12). […] Data were presented as the average ± SD of n = 3−4 mice.
Purpose: Biodistribution studies were performed in KB tumor-bearing athymic nude mice (Crl:CD1-Foxnnu) in order to investigate the tissue distribution profiles of the novel radioconjugates. The aim was to compare the impact of the two different albumin binders (4-(p-iodophenyl)butanoate unit vs. 5-(p-iodophenyl)pentanoate unit), and that of the in-corporation of an AMBA linker adjacent to the albumin binder on the distribution profile of the resulting folate radioconjugates.
Methods: The methods are described in the main article. The mice were sacrificed at […]

[2] = biological target: T1, folate receptor (FR) (Homo sapiens, UniProt P15328); test: FR-binding affinity (KD) of 177Lu-RedFols on IGROV-1 cells; conditions: 1 h at 4 °C, read-out: KD Value (95% CI)
T1 construct: endogenous in cells; host or cells: IGROV-1 (human ovarian carcinoma cell line), intact cells on ice
T1 sequence (P15328 25-257): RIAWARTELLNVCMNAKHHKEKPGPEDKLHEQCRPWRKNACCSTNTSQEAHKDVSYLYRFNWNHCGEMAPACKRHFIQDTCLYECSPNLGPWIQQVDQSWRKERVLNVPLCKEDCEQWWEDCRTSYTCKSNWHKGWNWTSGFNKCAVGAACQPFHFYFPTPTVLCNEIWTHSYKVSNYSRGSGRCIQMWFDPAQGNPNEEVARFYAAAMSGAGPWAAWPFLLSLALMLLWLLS
Experimental: (100 µM) to block FRs on the cell surface. The IGROV-1 tumor cells were incubated for 1 h at 4 °C on a shaker, followed by removal of the supernatants and rinsing of the cells twice with PBS. After lysis of the cells with NaOH solution (1 M, 500 µL), the samples were counted for activity using a γ-counter (Wallac Wizard 1480, Perkin Elmer, Waltham, MA, USA). The cpm of the specific binding (determined by subtracting the cpm of the non-specific binding from the cpm of total binding), were plotted against the molar con-centration of the added folate radioconjugates. Non-linear regression analysis was per-formed using GraphPad Prism software (version 8) to obtain KD values from one curve of 3−5 independent experiments, each performed in triplicates.
Results: The results are reported in the main article. […]

CN1c2c(nc(N)[nH]c2=O)NC[C@H]1CNc1ccc(C(=O)N[C@@H](CCC(=O)N[C@@H](CCCCNC(=O)CN2CCN(CC(=O)O)CCN(CC(=O)O)CCN(CC(=O)O)CC2)C(=O)N[C@@H](CCCCNC(=O)CCCCc2ccc(I)cc2)C(=O)O)C(=O)O)cc1 [[^177Lu]Lu-6R-RedFol-24, metal not drawn]
Blood, accumulated activity ([1]; 1 h p.i.): 9.0 ± 1.2 % IA/g | Bone, accumulated activity ([1]; 1 h p.i.): 1.2 ± 0.1 % IA/g | Intestines, accumulated activity ([1]; 1 h p.i.): 1.2 ± 0.3 % IA/g | KB tumor, accumulated activity ([1]; 1 h p.i.): 17 ± 2 % IA/g | Kidneys, accumulated activity ([1]; 1 h p.i.): 36 ± 4 % IA/g | Liver, accumulated activity ([1]; 1 h p.i.): 2.6 ± 0.7 % IA/g | Lung, accumulated activity ([1]; 1 h p.i.): 4.6 ± 0.3 % IA/g | Muscle, accumulated activity ([1]; 1 h p.i.): 1.4 ± 0.1 % IA/g | Salivary glands, accumulated activity ([1]; 1 h p.i.): 6.4 ± 0.1 % IA/g | Spleen, accumulated activity ([1]; 1 h p.i.): 1.3 ± 0.2 % IA/g | Stomach, accumulated activity ([1]; 1 h p.i.): 1.5 ± 0.1 % IA/g | Tumor-to-blood ratio ([1]; 1 h p.i.): 2.0 ± 0.4 | Tumor-to-kidney ratio ([1]; 1 h p.i.): 0.48 ± 0.02 | Tumor-to-liver ratio ([1]; 1 h p.i.): 6.9 ± 1.6 | Blood, accumulated activity ([1]; 4 h p.i.): 3.2 ± 1.8 % IA/g | Bone, accumulated activity ([1]; 4 h p.i.): 0.87 ± 0.21 % IA/g | Intestines, accumulated activity ([1]; 4 h p.i.): 0.83 ± 0.37 % IA/g | KB tumor, accumulated activity ([1]; 4 h p.i.): 34 ± 6 % IA/g | Kidneys, accumulated activity ([1]; 4 h p.i.): 57 ± 5 % IA/g | Liver, accumulated activity ([1]; 4 h p.i.): 1.9 ± 0.4 % IA/g | Lung, accumulated activity ([1]; 4 h p.i.): 2.4 ± 1.1 % IA/g | Muscle, accumulated activity ([1]; 4 h p.i.): 1.3 ± 0.2 % IA/g | Salivary glands, accumulated activity ([1]; 4 h p.i.): 8.7 ± 0.9 % IA/g | Spleen, accumulated activity ([1]; 4 h p.i.): 0.83 ± 0.25 % IA/g | Stomach, accumulated activity ([1]; 4 h p.i.): 1.4 ± 0.5 % IA/g | Tumor-to-blood ratio ([1]; 4 h p.i.): 12 ± 5 | Tumor-to-kidney ratio ([1]; 4 h p.i.): 0.59 ± 0.04 | Tumor-to-liver ratio ([1]; 4 h p.i.): 18 ± 3 | Blood, accumulated activity ([1]; 24 h p.i.): 0.06 ± 0.01 % IA/g | Bone, accumulated activity ([1]; 24 h p.i.): 0.49 ± 0.09 % IA/g | Intestines, accumulated activity ([1]; 24 h p.i.): 0.28 ± 0.11 % IA/g | KB tumor, accumulated activity ([1]; 24 h p.i.): 33 ± 2 % IA/g | Kidneys, accumulated activity ([1]; 24 h p.i.): 62 ± 11 % IA/g | Liver, accumulated activity ([1]; 24 h p.i.): 1.2 ± 0.2 % IA/g | Lung, accumulated activity ([1]; 24 h p.i.): 0.60 ± 0.07 % IA/g | Muscle, accumulated activity ([1]; 24 h p.i.): 0.75 ± 0.20 % IA/g | Salivary glands, accumulated activity ([1]; 24 h p.i.): 4.5 ± 0.8 % IA/g | Spleen, accumulated activity ([1]; 24 h p.i.): 0.51 ± 0.13 % IA/g | Stomach, accumulated activity ([1]; 24 h p.i.): 0.54 ± 0.12 % IA/g | Tumor-to-blood ratio ([1]; 24 h p.i.): 583 ± 105 | Tumor-to-kidney ratio ([1]; 24 h p.i.): 0.54 ± 0.07 | Tumor-to-liver ratio ([1]; 24 h p.i.): 28 ± 7 | Kd [2]: 4.7 nM

CN1c2c(nc(N)[nH]c2=O)NCC1CNc1ccc(C(=O)NC(CCC(=O)NC(CCCCNC(=O)CN2CCN(CC(=O)[O-])CCN(CC(=O)[O-])CCN(CC(=O)[O-])CC2)C(=O)NC(CCCCNC(=O)c2ccc(CNC(=O)CCCCc3ccc(I)cc3)cc2)C(=O)O)C(=O)O)cc1.[177Lu+3] (stereo not drawn) [[^177Lu]Lu-6S-RedFol-25]
Blood, accumulated activity ([1]; 1 h p.i.): 13 ± 2 % IA/g | Bone, accumulated activity ([1]; 1 h p.i.): 1.4 ± 0.2 % IA/g | Intestines, accumulated activity ([1]; 1 h p.i.): 1.3 ± 0.3 % IA/g | KB tumor, accumulated activity ([1]; 1 h p.i.): 17 ± 2 % IA/g | Kidneys, accumulated activity ([1]; 1 h p.i.): 38 ± 5 % IA/g | Liver, accumulated activity ([1]; 1 h p.i.): 2.3 ± 0.1 % IA/g | Lung, accumulated activity ([1]; 1 h p.i.): 5.5 ± 0.8 % IA/g | Muscle, accumulated activity ([1]; 1 h p.i.): 1.2 ± 0.2 % IA/g | Salivary glands, accumulated activity ([1]; 1 h p.i.): 2.2 ± 1.5 % IA/g | Spleen, accumulated activity ([1]; 1 h p.i.): 1.4 ± 0.2 % IA/g | Stomach, accumulated activity ([1]; 1 h p.i.): 1.3 ± 0.2 % IA/g | Tumor-to-blood ratio ([1]; 1 h p.i.): 1.3 ± 0.1 | Tumor-to-kidney ratio ([1]; 1 h p.i.): 0.45 ± 0.02 | Tumor-to-liver ratio ([1]; 1 h p.i.): 7.4 ± 0.6 | Blood, accumulated activity ([1]; 4 h p.i.): 8.4 ± 2.8 % IA/g | Bone, accumulated activity ([1]; 4 h p.i.): 1.1 ± 0.4 % IA/g | Intestines, accumulated activity ([1]; 4 h p.i.): 1.2 ± 0.4 % IA/g | KB tumor, accumulated activity ([1]; 4 h p.i.): 32 ± 8 % IA/g | Kidneys, accumulated activity ([1]; 4 h p.i.): 88 ± 23 % IA/g | Liver, accumulated activity ([1]; 4 h p.i.): 1.9 ± 0.5 % IA/g | Lung, accumulated activity ([1]; 4 h p.i.): 4.1 ± 1.4 % IA/g | Muscle, accumulated activity ([1]; 4 h p.i.): 0.92 ± 0.27 % IA/g | Salivary glands, accumulated activity ([1]; 4 h p.i.): 1.9 ± 1.1 % IA/g | Spleen, accumulated activity ([1]; 4 h p.i.): 1.3 ± 0.3 % IA/g | Stomach, accumulated activity ([1]; 4 h p.i.): 1.0 ± 0.4 % IA/g | Tumor-to-blood ratio ([1]; 4 h p.i.): 4.0 ± 1.2 | Tumor-to-kidney ratio ([1]; 4 h p.i.): 0.37 ± 0.05 | Tumor-to-liver ratio ([1]; 4 h p.i.): 18 ± 5 | Blood, accumulated activity ([1]; 24 h p.i.): 0.15 ± 0.09 % IA/g | Bone, accumulated activity ([1]; 24 h p.i.): 0.14 ± 0.05 % IA/g | Intestines, accumulated activity ([1]; 24 h p.i.): 0.10 ± 0.03 % IA/g | KB tumor, accumulated activity ([1]; 24 h p.i.): 37 ± 4 % IA/g | Kidneys, accumulated activity ([1]; 24 h p.i.): 121 ± 13 % IA/g | Liver, accumulated activity ([1]; 24 h p.i.): 0.56 ± 0.07 % IA/g | Lung, accumulated activity ([1]; 24 h p.i.): 0.27 ± 0.06 % IA/g | Muscle, accumulated activity ([1]; 24 h p.i.): 0.10 ± 0.02 % IA/g | Salivary glands, accumulated activity ([1]; 24 h p.i.): 0.49 ± 0.04 % IA/g | Spleen, accumulated activity ([1]; 24 h p.i.): 0.42 ± 0.05 % IA/g | Stomach, accumulated activity ([1]; 24 h p.i.): 0.13 ± 0.04 % IA/g | Tumor-to-blood ratio ([1]; 24 h p.i.): 316 ± 150 | Tumor-to-kidney ratio ([1]; 24 h p.i.): 0.31 ± 0.02 | Tumor-to-liver ratio ([1]; 24 h p.i.): 67 ± 16 | Kd [2]: 2.2 nM

CN1c2c(nc(N)[nH]c2=O)NC[C@H]1CNc1ccc(C(=O)N[C@@H](CCC(=O)N[C@@H](CCCCNC(=O)CN2CCN(CC(=O)O)CCN(CC(=O)O)CCN(CC(=O)O)CC2)C(=O)N[C@@H](CCCCNC(=O)c2ccc(CNC(=O)CCCCc3ccc(I)cc3)cc2)C(=O)O)C(=O)O)cc1 [[^177Lu]Lu-6R-RedFol-25, metal not drawn]
Blood, accumulated activity ([1]; 1 h p.i.): 13 ± 3 % IA/g | Bone, accumulated activity ([1]; 1 h p.i.): 1.5 ± 0.3 % IA/g | Intestines, accumulated activity ([1]; 1 h p.i.): 1.7 ± 0.3 % IA/g | KB tumor, accumulated activity ([1]; 1 h p.i.): 15 ± 1 % IA/g | Kidneys, accumulated activity ([1]; 1 h p.i.): 22 ± 3 % IA/g | Liver, accumulated activity ([1]; 1 h p.i.): 2.3 ± 0.6 % IA/g | Lung, accumulated activity ([1]; 1 h p.i.): 5.8 ± 1.7 % IA/g | Muscle, accumulated activity ([1]; 1 h p.i.): 1.4 ± 0.1 % IA/g | Salivary glands, accumulated activity ([1]; 1 h p.i.): 4.7 ± 3.3 % IA/g | Spleen, accumulated activity ([1]; 1 h p.i.): 1.7 ± 0.3 % IA/g | Stomach, accumulated activity ([1]; 1 h p.i.): 1.7 ± 0.2 % IA/g | Tumor-to-blood ratio ([1]; 1 h p.i.): 1.2 ± 0.4 | Tumor-to-kidney ratio ([1]; 1 h p.i.): 0.67 ± 0.07 | Tumor-to-liver ratio ([1]; 1 h p.i.): 6.8 ± 2.4 | Blood, accumulated activity ([1]; 4 h p.i.): 6.1 ± 0.5 % IA/g | Bone, accumulated activity ([1]; 4 h p.i.): 1.1 ± 0.1 % IA/g | Intestines, accumulated activity ([1]; 4 h p.i.): 0.78 ± 0.15 % IA/g | KB tumor, accumulated activity ([1]; 4 h p.i.): 30 ± 3 % IA/g | Kidneys, accumulated activity ([1]; 4 h p.i.): 39 ± 2 % IA/g | Liver, accumulated activity ([1]; 4 h p.i.): 2.1 ± 0.2 % IA/g | Lung, accumulated activity ([1]; 4 h p.i.): 3.4 ± 0.1 % IA/g | Muscle, accumulated activity ([1]; 4 h p.i.): 1.3 ± 0.2 % IA/g | Salivary glands, accumulated activity ([1]; 4 h p.i.): 4.8 ± 3.2 % IA/g | Spleen, accumulated activity ([1]; 4 h p.i.): 1.2 ± 0.1 % IA/g | Stomach, accumulated activity ([1]; 4 h p.i.): 1.1 ± 0.1 % IA/g | Tumor-to-blood ratio ([1]; 4 h p.i.): 4.9 ± 0.2 | Tumor-to-kidney ratio ([1]; 4 h p.i.): 0.78 ± 0.11 | Tumor-to-liver ratio ([1]; 4 h p.i.): 14 ± 1 | Blood, accumulated activity ([1]; 24 h p.i.): 0.16 ± 0.08 % IA/g | Bone, accumulated activity ([1]; 24 h p.i.): 0.50 ± 0.12 % IA/g | Intestines, accumulated activity ([1]; 24 h p.i.): 0.26 ± 0.06 % IA/g | KB tumor, accumulated activity ([1]; 24 h p.i.): 34 ± 5 % IA/g | Kidneys, accumulated activity ([1]; 24 h p.i.): 48 ± 4 % IA/g | Liver, accumulated activity ([1]; 24 h p.i.): 1.5 ± 0.2 % IA/g | Lung, accumulated activity ([1]; 24 h p.i.): 0.78 ± 0.23 % IA/g | Muscle, accumulated activity ([1]; 24 h p.i.): 1.1 ± 0.6 % IA/g | Salivary glands, accumulated activity ([1]; 24 h p.i.): 3.1 ± 2.0 % IA/g | Spleen, accumulated activity ([1]; 24 h p.i.): 0.60 ± 0.04 % IA/g | Stomach, accumulated activity ([1]; 24 h p.i.): 0.44 ± 0.06 % IA/g | Tumor-to-blood ratio ([1]; 24 h p.i.): 247 ± 101 | Tumor-to-kidney ratio ([1]; 24 h p.i.): 0.72 ± 0.15 | Tumor-to-liver ratio ([1]; 24 h p.i.): 23 ± 7 | Kd [2]: 3.6 nM
